Measurements published in the supplement of paper PMC10331698.
± gives the standard deviation of the averaged measurements.

How the values were obtained:
Test in all cases: level (log10 ratio to DMSO vehicle control); higher = higher biomarker level / cell amount than vehicle control
[1] = compound: C=CC(=O)OCC(F)(F)C(F)(F)C(F)(F)COC(=O)C=C [1H,1H,5H,5H-Perfluoro-1,5-pentanediol diacrylate]; settings: 6700 nM; in DMSO
Procedure: (§1)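 BioMAP Diversity Plus panel of 12 human primary cell co-culture systems (3C, 4H, LPS, SAg, BT, BF4T, BE3C, CASM3C, HDF3CGF, KF3CT, MyoF, Mphg). Compounds were added 1 h before stimulation and left for 24 h (MyoF 48 h; BT 72 h for soluble read-outs or 6 d for IgG). Biomarkers were read by ELISA, cytotoxicity by SRB, PBMC viability and proliferation by Alamar Blue. Each well value was divided by the mean of 8 DMSO control wells on the same plate and log10 transformed; duplicate blinded samples were tested at 4 concentrations.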

[2] = compound: COC(=O)C(F)(F)C(F)(F)OC(F)(C(F)(F)F)C(F)(F)OC(F)=C(F)F [Methyl perfluoro(3-(1-ethenyloxypropan-2-yloxy)propanoate)]; settings: in DMSO
Procedure: as §1

[3] = compound: FC(F)(F)C(F)(F)C(F)(F)C(F)(F)C(F)(F)C(F)(F)C(F)(F)I [1-Iodopentadecafluoroheptane]; settings: in DMSO
Procedure: as §1

Nonafluoropentanamide = compound: NC(=O)C(F)(F)C(F)(F)C(F)(F)C(F)(F)F [Nonafluoropentanamide]; settings: in DMSO
Procedure: as §1

[4] = compound: NC(=O)C(F)(F)C(F)(F)C(F)(F)C(F)F; settings: in DMSO
Procedure: as §1

[5] = compound: O=C(O)C=CC(F)(C(F)(F)F)C(F)(F)F [3-(Perfluoroisopropyl)-2-propenoic acid]; settings: in DMSO
Procedure: as §1

[6] = compound: O=S(=O)(O)CCC(F)(F)C(F)(F)C(F)(F)C(F)(F)C(F)(F)C(F)(F)F [6:2 Fluorotelomer sulfonic acid]; settings: in DMSO
Procedure: as §1

Hexafluoroamylene glycol = compound: OCC(F)(F)C(F)(F)C(F)(F)CO [Hexafluoroamylene glycol]; settings: in DMSO
Procedure: as §1

## MyoF:bFGF
[1]
  level (log10): 0.0025 ± 0.005
[2]; 6700 nM
  level (log10): 0.016 ± 0.0099
[2]; 20000 nM
  level (log10): 0.037 ± 0.021
[3]; 6700 nM
  level (log10): 0.0165 ± 0.016
[3]; 20000 nM
  level (log10): -0.0075 ± 0.015
Nonafluoropentanamide; 6700 nM
  level (log10): 0.0185 ± 0.023
Nonafluoropentanamide; 20000 nM
  level (log10): -0.003 ± 0.0099
Nonafluoropentanamide; 60000 nM
  level (log10): -0.007 ± 0.0057
[4]; 6700 nM
  level (log10): -0.0125 ± 0.005
[4]; 20000 nM
  level (log10): -0.008 ± 0.017
[4]; 60000 nM
  level (log10): -0.0155 ± 0.005
[5]; 6700 nM
  level (log10): 0 ± 0.0028
[5]; 20000 nM
  level (log10): 0.006 ± 0.027
[5]; 60000 nM
  level (log10): 0.006 ± 0.017
[6]; 6700 nM
  level (log10): -0.0065 ± 0.0078
[6]; 20000 nM
  level (log10): 0.019 ± 0.013
[6]; 60000 nM
  level (log10): 0.0235 ± 0.044
Hexafluoroamylene glycol; 6700 nM
  level (log10): -0.007 ± 0.017
Hexafluoroamylene glycol; 20000 nM
  level (log10): 0.006 ± 0.0085
Hexafluoroamylene glycol; 60000 nM
  level (log10): 0.0125 ± 0.019

## KF3CT:SRB
[1]
  level (log10): -0.01 ± 0.0085
[2]; 6700 nM
  level (log10): 0.005 ± 0.013
[2]; 20000 nM
  level (log10): 0.0125 ± 0.0078
[3]; 6700 nM
  level (log10): 0.0015 ± 0.0064
[3]; 20000 nM
  level (log10): 0.005 ± 0.0057
Nonafluoropentanamide; 6700 nM
  level (log10): -0.001
Nonafluoropentanamide; 20000 nM
  level (log10): -0.004 ± 0.0071
Nonafluoropentanamide; 60000 nM
  level (log10): 0.0085 ± 0.015
[4]; 6700 nM
  level (log10): -0.006 ± 0.0028
[4]; 20000 nM
  level (log10): -0.0005 ± 0.0064
[4]; 60000 nM
  level (log10): -0.002 ± 0.013
[5]; 6700 nM
  level (log10): -0.005
[5]; 20000 nM
  level (log10): -0.009 ± 0.0014
[5]; 60000 nM
  level (log10): 0.002 ± 0.013
[6]; 6700 nM
  level (log10): -0.004
[6]; 20000 nM
  level (log10): 0.0005 ± 0.0035
[6]; 60000 nM
  level (log10): 0.006 ± 0.016
Hexafluoroamylene glycol; 6700 nM
  level (log10): -0.0045 ± 0.00071
Hexafluoroamylene glycol; 20000 nM
  level (log10): -0.005 ± 0.0057
Hexafluoroamylene glycol; 60000 nM
  level (log10): 0.0025 ± 0.0078

## LPS:CD106/VCAM-1
[1]
  level (log10): -0.118 ± 0.071
[2]; 6700 nM
  level (log10): -0.066 ± 0.013
[2]; 20000 nM
  level (log10): -0.0805 ± 0.0064
[3]; 6700 nM
  level (log10): 0.0045 ± 0.016
[3]; 20000 nM
  level (log10): -0.005 ± 0.0071
Nonafluoropentanamide; 6700 nM
  level (log10): -0.0075 ± 0.028
Nonafluoropentanamide; 20000 nM
  level (log10): -0.0135 ± 0.005
Nonafluoropentanamide; 60000 nM
  level (log10): 0.0035 ± 0.011
[4]; 6700 nM
  level (log10): -0.0055 ± 0.025
[4]; 20000 nM
  level (log10): -0.023 ± 0.041
[4]; 60000 nM
  level (log10): -0.015 ± 0.025
[5]; 6700 nM
  level (log10): 0.003 ± 0.018
[5]; 20000 nM
  level (log10): -0.023 ± 0.013
[5]; 60000 nM
  level (log10): -0.018 ± 0.021
[6]; 6700 nM
  level (log10): -0.0055 ± 0.067
[6]; 20000 nM
  level (log10): -0.0005 ± 0.074
[6]; 60000 nM
  level (log10): 0.0115 ± 0.042
Hexafluoroamylene glycol; 6700 nM
  level (log10): -0.0215 ± 0.054
Hexafluoroamylene glycol; 20000 nM
  level (log10): -0.03 ± 0.064
Hexafluoroamylene glycol; 60000 nM
  level (log10): -0.0055 ± 0.059

## HDF3CGF:EGFR
[1]
  level (log10): -0.016 ± 0.025
[2]; 6700 nM
  level (log10): 0.0505 ± 0.054
[2]; 20000 nM
  level (log10): -0.005 ± 0.12
[3]; 6700 nM
  level (log10): 0.011 ± 0.02
[3]; 20000 nM
  level (log10): 0.0135 ± 0.042
Nonafluoropentanamide; 6700 nM
  level (log10): -0.067 ± 0.058
Nonafluoropentanamide; 20000 nM
  level (log10): -0.048 ± 0.016
Nonafluoropentanamide; 60000 nM
  level (log10): -0.002 ± 0.042
[4]; 6700 nM
  level (log10): 0.001 ± 0.033
[4]; 20000 nM
  level (log10): 0.0025 ± 0.046
[4]; 60000 nM
  level (log10): 0.0125 ± 0.043
[5]; 6700 nM
  level (log10): -0.0025 ± 0.005
[5]; 20000 nM
  level (log10): 0.0015 ± 0.005
[5]; 60000 nM
  level (log10): 0.0265 ± 0.025
[6]; 6700 nM
  level (log10): -0.0455 ± 0.022
[6]; 20000 nM
  level (log10): -0.0535 ± 0.025
[6]; 60000 nM
  level (log10): -0.0305 ± 0.029
Hexafluoroamylene glycol; 6700 nM
  level (log10): -0.028 ± 0.02
Hexafluoroamylene glycol; 20000 nM
  level (log10): -0.0305 ± 0.04
Hexafluoroamylene glycol; 60000 nM
  level (log10): -0.0035 ± 0.005

## 3C:CD54/ICAM-1
[1]
  level (log10): -0.03 ± 0.014
[2]; 6700 nM
  level (log10): -0.02 ± 0.0042
[2]; 20000 nM
  level (log10): -0.0045 ± 0.016
[3]; 6700 nM
  level (log10): -0.0115 ± 0.00071
[3]; 20000 nM
  level (log10): 0.014 ± 0.016
Nonafluoropentanamide; 6700 nM
  level (log10): -0.0155 ± 0.005
Nonafluoropentanamide; 20000 nM
  level (log10): -0.0025 ± 0.0092
Nonafluoropentanamide; 60000 nM
  level (log10): 0.005 ± 0.021
[4]; 6700 nM
  level (log10): -0.0095 ± 0.013
[4]; 20000 nM
  level (log10): -0.0115 ± 0.019
[4]; 60000 nM
  level (log10): -0.0095 ± 0.025
[5]; 6700 nM
  level (log10): -0.013 ± 0.033
[5]; 20000 nM
  level (log10): -0.0185 ± 0.025
[5]; 60000 nM
  level (log10): -0.003 ± 0.013
[6]; 6700 nM
  level (log10): -0.012 ± 0.021
[6]; 20000 nM
  level (log10): -0.006 ± 0.021
[6]; 60000 nM
  level (log10): -0.004 ± 0.011
Hexafluoroamylene glycol; 6700 nM
  level (log10): -0.01 ± 0.0085
Hexafluoroamylene glycol; 20000 nM
  level (log10): -0.0325 ± 0.005
Hexafluoroamylene glycol; 60000 nM
  level (log10): -0.016 ± 0.023

## HDF3CGF:CXCL9/MIG
[1]
  level (log10): -0.779
[2]; 6700 nM
  level (log10): 0.01 ± 0.0014
[2]; 20000 nM
  level (log10): -0.063 ± 0.014
[3]; 6700 nM
  level (log10): -0.016 ± 0.0042
[3]; 20000 nM
  level (log10): 0.0015 ± 0.0064
Nonafluoropentanamide; 6700 nM
  level (log10): 0.017 ± 0.0028
Nonafluoropentanamide; 20000 nM
  level (log10): -0.0025 ± 0.0064
Nonafluoropentanamide; 60000 nM
  level (log10): 0.005 ± 0.018
[4]; 6700 nM
  level (log10): 0.0055 ± 0.00071
[4]; 20000 nM
  level (log10): -0.0065 ± 0.012
[4]; 60000 nM
  level (log10): -0.0025 ± 0.0035
[5]; 6700 nM
  level (log10): 0.017 ± 0.0071
[5]; 20000 nM
  level (log10): 0.02 ± 0.011
[5]; 60000 nM
  level (log10): 0.011 ± 0.023
[6]; 6700 nM
  level (log10): -0.013 ± 0.048
[6]; 20000 nM
  level (log10): -0.0395 ± 0.018
[6]; 60000 nM
  level (log10): -0.046 ± 0.038
Hexafluoroamylene glycol; 6700 nM
  level (log10): -0.001 ± 0.038
Hexafluoroamylene glycol; 20000 nM
  level (log10): 0.0055 ± 0.035
Hexafluoroamylene glycol; 60000 nM
  level (log10): -0.035 ± 0.083

## 3C:HLA-DR
[1]
  level (log10): -0.092 ± 0.078
[2]; 6700 nM
  level (log10): 0.002 ± 0.0014
[2]; 20000 nM
  level (log10): 0.0075 ± 0.0078
[3]; 6700 nM
  level (log10): -0.019 ± 0.0057
[3]; 20000 nM
  level (log10): -0.0075 ± 0.015
Nonafluoropentanamide; 6700 nM
  level (log10): -0.0095 ± 0.054
Nonafluoropentanamide; 20000 nM
  level (log10): -0.007 ± 0.0099
Nonafluoropentanamide; 60000 nM
  level (log10): 0.003 ± 0.0014
[4]; 6700 nM
  level (log10): -0.006 ± 0.02
[4]; 20000 nM
  level (log10): -0.002 ± 0.016
[4]; 60000 nM
  level (log10): -0.005 ± 0.014
[5]; 6700 nM
  level (log10): 0.0095 ± 0.005
[5]; 20000 nM
  level (log10): -0.0135 ± 0.022
[5]; 60000 nM
  level (log10): -0.003 ± 0.028
[6]; 6700 nM
  level (log10): -0.0075 ± 0.025
[6]; 20000 nM
  level (log10): -0.0145 ± 0.0078
[6]; 60000 nM
  level (log10): -0.0065 ± 0.0035
Hexafluoroamylene glycol; 6700 nM
  level (log10): -0.0225 ± 0.0064
Hexafluoroamylene glycol; 20000 nM
  level (log10): -0.0205 ± 0.00071
Hexafluoroamylene glycol; 60000 nM
  level (log10): -0.015 ± 0.0042
